Measured values: patent US20230103791A1 (GLAXOSMITHKLINE INTELLECTUAL PROPERTY DEVELOPMENT LIMITED, priority 2019, published 2023)

Target: T1, human Nav1.8 (Homo sapiens, UniProt Q9Y5Y9)
T1 construct: expressed in transfected cells; host or cells: HEK293 (HEK293-Nav1.8)
Assay: Nav1.8 sodium channels assay, QPatch 48 HTX electrophysiology in HEK293-Nav1.8 cells
Format: cell-based
Details: at least one set of experimental runs; read-out: average pIC50 value against Nav1.8 (converted)
Experimental: Human embryonic kidney […] cells (HEK293) expressing human Nav1.8, human Navβ1 and human TREK1 (HEK293-Nav1.8) were grown at 37° C., 5% CO2 in 150 cm^2 flasks. HEK293-Nav1.8 were passaged every 2-3 days when confluency reached 80-90% in to T175 cell culture flasks.
Pharmacological assessment of the invention was performed using HEK293-Nav1.8 in combination with an assay developed on the QPatch 48 HTX electrophysiological system. HEK293-Nav1.8 were prepared on the day of use by removing culture media, washing in DPBS, adding Accutase (2 ml to cover the surface, aspirate 1 ml then 1.5 min at 37° C.) followed by addition of CHO-SFM II to stop the enzyme digestion and in order to obtain a suspension of 3×10^6 cell/mL.
The invention was prepared in an extracellular solution of the following composition (in mM) NaCl 145, KCl 4, CaCl2 2, MgCl 2, HEPES 1, Glucose 10, pH 7.4 with NaOH Osmolality 300 mOsM/L. The intracellular solution was used of the following composition (in mM) CsF 115, CsCl 20, NaCl 5, EGTA 10, HEPES 10, Sucrose 20, pH 7.2 with CsOH Osmolality 310 mOsm/L.
Utilizing the voltage-clamp mode in the QPatch 48 HTX system a half inactivation state voltage protocol (V1/2) was used to determine pharmacological activity of the invention at Nav1.8 ion channels. A V1/2 protocol was utilized with the following voltage steps: a holding voltage of −100 mV was established followed by a 20 ms voltage step to 0 mV (P1), followed by an inactivating voltage step at −46 mV for 8 seconds, followed by a step to −100 mV for 20 ms, before a 20 ms step to 0 mV (P2) before returning to the holding voltage of −100 mV. This voltage protocol was repeated at a frequency of 0.07 Hz., current magnitude was quantified at the P2 step throughout the recording. Inhibition of the measured current amplitude with the invention was analyzed by fitting a 6-8 point dose-response curve allowing determination of the fifty percent inhibition concentration (IC50). Within the QPatch HTX software, P2 current was normalized according to measurements made at baseline after compound and after positive reference compound and fit to the following equation: […]
To assess current run-down over the course of the experiment vehicle-only wells were utilized and the normalized current with vehicle-only (n.IVEH) was determined. To correct the compound response for run-down, the currents were correct according the following formula: […]
Compounds of the invention are tested for activity against Nav1. 8 sodium channels in the above assay.

T1 sequence (Q9Y5Y9 whole entry): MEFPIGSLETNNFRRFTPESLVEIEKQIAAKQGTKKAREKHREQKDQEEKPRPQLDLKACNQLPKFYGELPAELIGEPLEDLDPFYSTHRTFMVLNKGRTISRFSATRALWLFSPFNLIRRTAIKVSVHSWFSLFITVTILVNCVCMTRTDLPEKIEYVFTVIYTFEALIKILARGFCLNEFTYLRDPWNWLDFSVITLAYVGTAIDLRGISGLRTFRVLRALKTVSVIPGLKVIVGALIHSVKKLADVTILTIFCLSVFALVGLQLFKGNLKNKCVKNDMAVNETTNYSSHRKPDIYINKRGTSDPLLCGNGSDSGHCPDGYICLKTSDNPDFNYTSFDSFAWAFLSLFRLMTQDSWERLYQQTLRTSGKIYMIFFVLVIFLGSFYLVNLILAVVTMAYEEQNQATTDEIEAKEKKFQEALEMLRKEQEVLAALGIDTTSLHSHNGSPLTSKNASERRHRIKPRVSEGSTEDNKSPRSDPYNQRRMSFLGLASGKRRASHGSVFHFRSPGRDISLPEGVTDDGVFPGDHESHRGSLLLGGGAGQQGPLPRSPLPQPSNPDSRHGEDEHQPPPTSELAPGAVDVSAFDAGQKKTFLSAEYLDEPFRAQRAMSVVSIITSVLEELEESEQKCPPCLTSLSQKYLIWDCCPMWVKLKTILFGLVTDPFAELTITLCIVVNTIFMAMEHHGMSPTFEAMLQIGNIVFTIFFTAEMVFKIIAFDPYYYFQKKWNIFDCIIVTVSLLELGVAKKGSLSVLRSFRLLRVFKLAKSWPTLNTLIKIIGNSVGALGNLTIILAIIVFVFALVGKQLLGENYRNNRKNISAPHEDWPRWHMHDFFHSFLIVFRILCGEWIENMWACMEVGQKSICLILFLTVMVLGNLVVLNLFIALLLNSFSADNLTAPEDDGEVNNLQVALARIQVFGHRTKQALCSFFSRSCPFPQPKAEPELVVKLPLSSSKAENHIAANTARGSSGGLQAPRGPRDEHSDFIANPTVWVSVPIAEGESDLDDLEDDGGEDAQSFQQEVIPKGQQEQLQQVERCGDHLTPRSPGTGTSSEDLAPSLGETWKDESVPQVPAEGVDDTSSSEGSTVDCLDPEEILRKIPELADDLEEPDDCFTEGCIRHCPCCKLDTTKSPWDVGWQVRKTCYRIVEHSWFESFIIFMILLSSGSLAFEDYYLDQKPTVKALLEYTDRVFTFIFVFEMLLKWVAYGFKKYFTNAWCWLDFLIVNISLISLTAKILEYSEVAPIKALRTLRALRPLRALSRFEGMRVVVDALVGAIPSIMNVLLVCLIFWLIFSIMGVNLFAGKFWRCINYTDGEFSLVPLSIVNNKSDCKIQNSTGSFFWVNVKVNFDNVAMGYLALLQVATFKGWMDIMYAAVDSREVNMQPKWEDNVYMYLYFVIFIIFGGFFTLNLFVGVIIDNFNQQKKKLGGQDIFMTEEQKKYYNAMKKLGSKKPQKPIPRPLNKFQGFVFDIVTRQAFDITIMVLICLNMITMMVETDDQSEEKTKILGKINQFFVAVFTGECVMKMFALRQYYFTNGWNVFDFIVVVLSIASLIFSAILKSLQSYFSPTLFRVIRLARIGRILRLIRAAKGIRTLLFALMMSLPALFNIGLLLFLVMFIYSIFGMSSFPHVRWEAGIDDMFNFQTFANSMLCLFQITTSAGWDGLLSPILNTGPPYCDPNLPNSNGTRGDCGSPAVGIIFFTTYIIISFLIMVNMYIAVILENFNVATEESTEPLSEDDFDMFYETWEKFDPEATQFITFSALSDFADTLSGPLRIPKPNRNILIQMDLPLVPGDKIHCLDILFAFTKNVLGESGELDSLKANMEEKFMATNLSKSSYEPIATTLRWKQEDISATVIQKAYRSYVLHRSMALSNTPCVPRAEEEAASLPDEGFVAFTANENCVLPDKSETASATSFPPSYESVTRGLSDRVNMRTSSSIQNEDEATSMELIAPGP
T1 sequence (Q07699 19-218 partner): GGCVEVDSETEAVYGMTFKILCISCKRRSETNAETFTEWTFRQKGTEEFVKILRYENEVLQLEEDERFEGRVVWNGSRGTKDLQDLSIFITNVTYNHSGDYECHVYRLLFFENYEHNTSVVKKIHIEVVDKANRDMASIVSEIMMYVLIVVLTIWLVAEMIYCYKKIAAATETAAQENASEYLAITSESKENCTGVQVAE

| IC50 [nM] | Structure (SMILES) |
| --- | --- |
| 794 to 7940 | Cc1[nH]c(=O)ccc1N1CN([C@H]2CC[C@H](F)C2)c2cc(C(F)(F)F)ccc2C1=O (racemic) [Example 208, 1-((1S,3S)-3-fluorocyclopentyl)-3-(2-methyl-6-oxo-1,6-dihydropyridin-3-yl)-7-(trifluoromethyl)-2,3-dihydroquinazolin-4(1H)-one and 1-((1R,3R)-3-fluorocyclopentyl)-3-(2-methyl-6-oxo-1,6-dihydropyridin-3-yl)-7-(trifluoromethyl)-2.3-dihydroquinazolin-4(1H)-one] |
| ≤ 100 | Cc1[nH]c(=O)ccc1N1CN([C@@H]2CCCC[C@H]2C)c2cc(C(F)(F)F)ccc2C1=O (racemic) [Example 278, Mixture of 3-(2-Methyl-6-oxo-1,6-dihydropyridin-3-yl)-1-((1R,2R)-2-methylcyclohexyl)-7-(trifluoromethyl)-2,3-dihydroquinazolin-4(1H)-one and 3-(2-Methyl-6-oxo-1,6-dihydropyridin-3-yl)-1-((1S,2S)-2-methylcyclohexyl)-7-(trifluoromethyl)-2,3-dihydroquinazolin-4(1H)-one] |
| 794 to 7940 | Cc1cc(F)ccc1N1c2cc(C(F)(F)F)ccc2C(=O)N(c2ccc(=O)[nH]c2)C1C (single isomer, unassigned) [Example 285] |
| 794 to 7940 | Cc1cc(=O)[nH]c(C)c1N1CN(c2ccc(F)cc2C(C)C)c2cc(C(F)(F)F)ccc2C1=O (single isomer, unassigned) [Example 289, 3-(2,4-Dimethyl-6-oxo-1,6-dihydropyridin-3-yl)-1-(4-fluoro-2-isopropylphenyl)-7-(trifluoromethyl)-2,3-dihydroquinazolin-4(1H)-one] |
| 126 to 631 | Cc1cc(=O)[nH]c(C)c1N1CN(c2ccc(F)cc2C(C)C)c2cc(C(F)(F)F)ccc2C1=O (single isomer, unassigned) [Example 290, 3-(2,4-dimethyl-6-oxo-1,6-dihydropyridin-3-yl)-1-(4-fluoro-2-isopropylphenyl)-7-(trifluoromethyl)-2,3-dihydroquinazolin-4(1H)-one] |
| 794 to 7940 | Cc1cc(=O)[nH]c(C)c1N1CN(c2ccc(F)cc2C(C)C)c2ccc(Cl)cc2C1=O (single isomer, unassigned) [Example 291, 6-Chloro-3-(2,4-dimethyl-6-oxo-1,6-dihydropyridin-3-yl)-1-(4-fluoro-2-isopropylphenyl)-2,3-dihydroquinazolin-4(1H)-one] |
| 126 to 631 | Cc1cc(=O)[nH]c(C)c1N1CN(c2ccc(F)cc2C(C)C)c2ccc(Cl)cc2C1=O (single isomer, unassigned) [Example 292, 6-Chloro-3-(2,4-dimethyl-6-oxo-1,6-dihydropyridin-3-yl)-1-(4-fluoro-2-isopropylphenyl)-2,3-dihydroquinazolin-4(1H)-one] |
| 126 to 631 | Cc1[nH]c(=O)ccc1N1CN(c2ccc(F)cc2C(C)(C)C)c2ccc(Cl)cc2C1=O (single isomer, unassigned) [Example 293, 1-(2-(tert-Butyl)-4-fluorophenyl)-6-chloro-3-(2-methyl-6-oxo-1,6-dihydropyridin-3-yl)-2,3-dihydroquinazolin-4(1H)-one] |
| ≤ 100 | Cc1[nH]c(=O)ccc1N1CN(c2ccc(F)cc2C(C)(C)C)c2ccc(Cl)cc2C1=O (single isomer, unassigned) [Example 294, 1-(2-(tert-Butyl)-4-fluorophenyl)-6-chloro-3-(2-methyl-6-oxo-1,6-dihydropyridin-3-yl)-2,3-dihydroquinazolin-4(1H)-one] |
| 794 to 7940 | Cc1[nH]c(=O)ccc1N1CN(c2ccc(F)cc2C(C)(C)C)c2cc(C(F)(F)F)ccc2C1=O (single isomer, unassigned) [Example 295, 1-(2-(tert-butyl)-4-fluorophenyl)-3-(2-methyl-6-oxo-1,6-dihydropyridin-3-yl)-7-(trifluoromethyl)-2,3-dihydroquinazolin-4(1H)-one] |
| ≤ 100 | Cc1[nH]c(=O)ccc1N1CN(c2ccc(F)cc2C(C)(C)C)c2cc(C(F)(F)F)ccc2C1=O (single isomer, unassigned) [Example 296, 1-(2-(tert-butyl)-4-fluorophenyl)-3-(2-methyl-6-oxo-1,6-dihydropyridin-3-yl)-7-(trifluoromethyl)-2,3-dihydroquinazolin-4(1H)-one] |
| 794 to 7940 | Cc1cc(F)ccc1N1CN(c2ccc(=O)n(C)c2)C(=O)c2ccc(C(F)(F)F)cc21 [Example 1] |
| 794 to 7940 | Cc1cc(F)ccc1N1CN(c2cccnc2)C(=O)c2ccc(C(F)(F)F)cc21 [Example 2] |
| 794 to 7940 | COc1ncc(N2CN(c3ccc(F)cc3C)c3cc(C(F)(F)F)ccc3C2=O)cn1 [Example 3, 1-(4-fluoro-2-methylphenyl)-3-(2-methoxypyrimidin-5-yl)-7-(trifluoromethyl)-2,3-dihydroquinazolin-4(1H)-one] |
| 126 to 631 | Cc1cc(F)ccc1N1CN(c2ccnn2C)C(=O)c2cc(C(F)(F)F)ccc21 [Example 4, 1-(4-fluoro-2-methylphenyl)-3-(1-methyl-1H-pyrazol-5-yl)-6-(trifluoromethyl)-2,3-dihydroquinazolin-4(1H)-one] |
| 794 to 7940 | CC(=O)Nc1cccc(N2CN(c3ccc(F)cc3C)c3cc(C(F)(F)F)ccc3C2=O)c1 [Example 5, N-(3-(1-(4-fluoro-2-methylphenyl)-4-oxo-7-(trifluoromethyl)-1,4-dihydroquinazolin-3(2H)-yl)phenyl)aceta-mide] |
| 794 to 7940 | CC(=O)Nc1ccc(N2CN(c3ccc(F)cc3C)c3cc(C(F)(F)F)ccc3C2=O)cc1 [Example 6, N-(4-(1-(4-fluoro-2-methylphenyl)-4-oxo-7-(trifluoromethyl)-1,4-dihydroquinazolin-3(2H)-yl)phenyl)aceta-mide] |
| 794 to 7940 | Cc1cc(F)ccc1N1CN(c2ccc(C(N)=O)nc2)C(=O)c2c1ccc(Cl)c2F [Example 7, 5-(6-chloro-5-fluoro-1-(4-fluoro-2-methylphenyl)-4-oxo-1,4-dihydroquinazolin-3(2H)-yl)picolinamide] |
| 794 to 7940 | Cc1cc(F)ccc1N1CN(c2ccnc(C(N)=O)c2)C(=O)c2c1ccc(Cl)c2F [Example 8, 4-(6-chloro-5-fluoro-1-(4-fluoro-2-methylphenyl)-4-oxo-1,4-dihydroquinazolin-3(2H)-yl)picolinamide] |
| 794 to 7940 | COc1ccc(N2CN(c3ccc(F)cc3Br)c3ccc(C(F)(F)F)cc3C2=O)c(C)n1 [Example 9, 1-(2-bromo-4-fluorophenyl)-3-(6-methoxy-2-methylpyridin-3-yl)-6-(trifluoromethyl)-2,3-dihydroquinazolin-4(1H)-one] |
| 794 to 7940 | COc1ccc(N2CN(c3ccc(F)cc3C)c3cc(C(F)(F)F)ccc3C2=O)cn1 [Example 10, 1-(4-fluoro-2-methylphenyl)-3-(6-methoxypyridin-3-yl)-7-(trifluoromethyl)-2,3-dihydroquinazolin-4(1H)-one] |
| 126 to 631 | Cc1cnccc1N1CN(c2ccc(OC(F)(F)F)cc2C)c2cc(F)c(Cl)cc2C1=O [Example 11, 6-chloro-7-fluoro-1-(2-methyl-4-(trifluoromethoxy)phenyl)-3-(3-methylpyridin-4-yl)-2,3-dihydroquinazolin-4(1H)-one] |
| 126 to 631 | CCc1cc(F)ccc1N1CN(c2ccncc2C)C(=O)c2cc(Cl)c(F)cc21 [Example 12, 6-chloro-1-(2-ethyl-4-fluorophenyl)-7-fluoro-3-(3-methylpyridin-4-yl)-2,3-dihydroquinazolin-4(1H)-one] |
| 794 to 7940 | Cc1cc(F)ccc1N1CN(c2ccc(S(C)(=O)=O)cc2)C(=O)c2ccc(C(F)(F)F)cc21 [Example 13, 1-(4-fluoro-2-methylphenyl)-3-(4-(methylsulfonyl)phen-yl)-7-(trifluoromethyl)-2,3-dihydroquinazolin-4(1H)-one] |
| 794 to 7940 | Cc1cc(F)ccc1N1CN(c2cccc(S(C)(=O)=O)c2)C(=O)c2ccc(C(F)(F)F)cc21 [Example 14, 1-(4-fluoro-2-methylphenyl)-3-(3-(methylsulfonyl)phen-yl)-7-(trifluoromethyl)-2,3-dihydroquinazolin-4(1H)-one] |
| 794 to 7940 | Cc1cc(F)ccc1N1CN(C2CCS(=O)(=O)C2)C(=O)c2cc(C(F)(F)F)ccc21 (centres unmarked) [Example 15, 3-(1,1-dioxidotetrahydro-thiophen-3-yl)-1-(4-fluoro-2-methylphenyl)-6-(trifluoromethyl)-2,3-dihydroquinazolin-4(1H)-one] |
